Publication PMC6072853 (Frontiers in Pharmacology, 2018)

Columns and labels:
Format in all cases: cell-based, human
SiHa = assay: MTT antiproliferative assay, SiHa; settings: Homo sapiens, 72 h, read-out: Growth inhibition (%) ± SEM
Description: (§1) Gynecological cancer cell lines, including ovarian (A2780), cervical (HeLa), and breast cancer cell lines (MCF7, T47D, MDA-MB-231, and MDA-MB-361) were purchased from the European Collection of Authenticated Cell Cultures (ECACC, Salisbury, United Kingdom). Additional cervical cell lines (SiHa and C33A) and a non-cancerous immortalized, mammary gland epithelial cell line (hTERT-HME1) were purchased from LGC Standards GmbH (Wesel, Germany). Non-cancerous fibroblast cells (MRC-5) were also obtained from the ECACC. All cells were cultured in minimal essential medium supplemented with 10% fetal bovine serum, 1% non-essential amino acids, and 1% antibiotic-antimycotic mixture, in humidified air containing 5% CO2 at 37°C. Immortalized hTERT-HME1 cells were maintained in serum-free mammary epithelial cell growth medium (MEGM) supplemented with insulin, human epidermal growth factor (hEGF), hydrocortisone, bovine pituitary extract, and an antibiotic-antimycotic mixture. All the medium and supplements were purchased from Lonza Group Ltd. (Basel, Switzerland).
(§2) The antiproliferative properties of the compounds were assessed by an MTT assay ([Mosmann, 1983]). Cells were seeded onto 96-well microplates at a density of 10,000 cells/well (MDA-MB-361 and C33A) or 5,000 cells/well (all other cell lines). After an overnight incubation, fresh medium containing the test compounds (at a concentration of 10 or 30 μM) was added. After incubation for 72 h at 37°C in humidified air, [3-(4,5-dimethylthiazol-2-yl)-2,5-diphenyltetrazolium bromide] (MTT) solution (5 mg/mL) was added. Purple formazan crystals were formed by the living cells during a 4 h contact period, which were assayed by spectrophotometry after having been dissolved in 100 μL DMSO. Untreated cells served as control, and cisplatin (CIS) (Ebewe Pharma GmbH, Unterach, Austria) was used as a reference compound. […] Two independent measurements were performed with five parallel wells. To present preliminary data concerning tumor selectivity of the potent compounds, the procedure was repeated on MRC-5 fibroblast and hTERT-HME1 immortalized mammary gland epithelial cells under the same experimental conditions.

MCF-7 = assay: MTT antiproliferative assay, MCF-7; settings: Homo sapiens, MCF7, 72 h, read-out: Growth inhibition (%) ± SEM; for inhibition at 10 µM: MCF-7, 10 μM; for inhibition at 30 µM: MCF-7, 30 μM
Description: as §1, §2

MDA-MB-231 = assay: MTT antiproliferative assay, MDA-MB-231; settings: Homo sapiens, 72 h, read-out: Growth inhibition (%) ± SEM; for inhibition at 10 µM: MDA-MB-231, 10 μM; for inhibition at 30 µM: MDA-MB-231, 30 μM
Description: as §1, §2

T47D = assay: MTT antiproliferative assay, T47D; settings: Homo sapiens, 72 h, read-out: Growth inhibition (%) ± SEM
Description: as §1, §2

MRC-5 = assay: MTT assay, non-cancerous fibroblasts MRC-5; settings: Homo sapiens, MRC5, 72 h, read-out: Growth inhibition (%) ± SEM; for inhibition at 10 µM: MRC-5, 10 μM; for inhibition at 30 µM: MRC-5, 30 μM
Description: as §1, §2

HeLa cells = assay: Fluorescent double staining (Hoechst 33258 / propidium iodide) morphology; settings: 24 h, 1.0, 3.0 or 5.0 μM
Protocol: Fluorescent double staining was performed in order to detect apoptosis induction and morphological changes using fluorescent microscopy. HeLa cells were seeded into a 96-well plate at the density of 3,000Ȓ5,000 cells per well. After an overnight incubation, the cells were treated with various concentrations of the test compounds for 24 h. The treated cells were then incubated with a fluorescent staining solution (containing Hoechst 33258 and propidium iodide, 500 and 300 μg/mL, respectively) for an hour. After staining, the cells were analyzed using a fluorescent microscope (Nikon ECLIPSE 146 TS100, Nikon Instruments Europe, Amstelveen, Netherlands) equipped with appropriate optical filters. For all different conditions, at least six fields were recorded with an attached QCapture CCD camera. This way cells with an intact, apoptotic or necrotic morphology can be distinguished based on their different nuclear morphological appearance and distinct membrane integrity.

caspase-3 = assay: Caspase-3 activity colorimetric assay; settings: HeLa
Protocol: (§3) In order to detect, whether the test compounds induce programmed cell death, the activity of caspase-3 was determined by a colorimetric assay. To elucidate the exact pathway of apoptosis, activities of caspase-8 and caspase-9 were additionally determined by colorimetric kits. In all cases approximately 12 million cells were treated with appropriate concentrations of the compounds for 24 or 72 h. After the treatment, the cells were scraped and the enzyme activities were determined by means of colorimetric assays mentioned above. All kits were purchased from Abnova Corp. (Taipei, Taiwan) and used in accordance with the instructions of the manufacturer.

caspase-9 = assay: Caspase-9 activity colorimetric assay; settings: HeLa
Protocol: as §3

SMILES	inhibition at 10 µM (SiHa) [%]	inhibition at 30 µM (SiHa) [%]	inhibition at 10 µM (MCF-7) [%]	inhibition at 30 µM (MCF-7) [%]	inhibition at 10 µM (MDA-MB-231) [%]	inhibition at 30 µM (MDA-MB-231) [%]	inhibition at 10 µM (T47D) [%]	inhibition at 30 µM (T47D) [%]	inhibition at 10 µM (MRC-5) [%]	inhibition at 30 µM (MRC-5) [%]	apoptotic and necrotic cell populations (morphology) (HeLa cells)	caspase-3 activity (caspase-3; 72 h)	caspase-9 activity (caspase-9; 72 h)	caspase-3 activity (caspase-3; 24 h, 5.0 μM)	caspase-9 activity (caspase-9; 24 h)
C[C@]12CC[C@H]3[C@@H](CCC4=CC(=O)CC[C@@H]43)[C@@H]1CC[C@@H]2O [Compound 1, 19-nortestosterone, reference compound]	< 20	20.7 ± 2.6	< 20	< 20	< 20	21.4 ± 1.2	< 20	< 20	5.4 ± 1.2	11.3 ± 0.5	substantial and concentration-dependent increase in both the apoptotic and necrotic cell populations	increased significantly	activated the initiator caspases	–	–
C[C@]12CC[C@H]3[C@@H](CCC4=CC(=O)CC[C@@H]43)[C@@H]1CC[C@H]2Cl [Compound 3]	< 20	26 ± 2.3	< 20	36.9 ± 2	< 20	< 20	< 20	< 20	4.3 ± 3.7	8 ± 2.3	substantial and concentration-dependent increase in both the apoptotic and necrotic cell populations	–	–	enhanced caspase-3 activity	significantly elevated
